Results reported in patent publication US12493040B2, “Cancer detection method using sense of smell of nematode” (HIROTSU BIO SCIENCE INC., priority 2013, dated 2025).
One block for each compound: values may come before it.

Tested on: RNAi-treated eri-1 (mg366) nematodes
Test: RNAi screening of olfactory receptor genes: chemotaxis assay of RNAi-treated nematodes to odorants
Type: in vivo, Caenorhabditis elegans
Description: The RNAi assay was carried out by performing an RNAi method involving the feeding (feeding RNAi method) of eri-1 (mg366) (19), using an Ahringer library (37).
Nine adult eri-1 mutants were placed on an NGM plate containing isopropyl 1-D-1-thiogalactopyranoside (0.19 g/L), ampicillin (60 mg/L), and Escherichia coli (E. coli), and were then cultured for 4 days. Subsequently, the adult worms were used in a chemotaxis assay. The chemotaxis assay was carried out as previously reported (6, 17). In the chemotaxis assay, the present inventor has used 30 to 50 worms in each experiment in which 1 μl of 10^−3- or 10^−4-diluted odorant (low concentration), or 1 and 5 μl of undiluted odorants (high concentration) were used.
The z score and a control value in each single test from 2SD were calculated in all days (Table 3) or every day. The z score was used as a threshold indicating a great difference (−1.96 and 1.96, P<0.05). […] Accordingly, the present inventor has used the z score±1 (−0.96 and 0.96, P<0.33) as a weaker threshold.

[1] = Control nematodes, repellent or high concentration of attractant
[2] = srh-4 RNAi-treated nematodes, repellent or high concentration of attractant
[3] = srh-7 RNAi-treated nematodes, repellent or high concentration of attractant
[4] = srh-8 RNAi-treated nematodes, repellent or high concentration of attractant
[5] = srh-10 RNAi-treated nematodes, repellent or high concentration of attractant
[6] = srh-11 RNAi-treated nematodes, repellent or high concentration of attractant
[7] = srh-15 RNAi-treated nematodes, repellent or high concentration of attractant
[8] = srh-16 RNAi-treated nematodes, repellent or high concentration of attractant
[9] = srh-18 RNAi-treated nematodes, repellent or high concentration of attractant
[10] = srh-19 RNAi-treated nematodes, repellent or high concentration of attractant
[11] = srh-22 RNAi-treated nematodes, repellent or high concentration of attractant
[12] = srh-23 RNAi-treated nematodes, repellent or high concentration of attractant
[13] = srh-24 RNAi-treated nematodes, repellent or high concentration of attractant
[14] = srh-25 RNAi-treated nematodes, repellent or high concentration of attractant
[15] = srh-27 RNAi-treated nematodes, repellent or high concentration of attractant
[16] = srh-28 RNAi-treated nematodes, repellent or high concentration of attractant
[17] = srh-36 RNAi-treated nematodes, repellent or high concentration of attractant
[18] = srh-37 RNAi-treated nematodes, repellent or high concentration of attractant
[19] = srh-39 RNAi-treated nematodes, repellent or high concentration of attractant
[20] = srh-40 RNAi-treated nematodes, repellent or high concentration of attractant
[21] = srh-41 RNAi-treated nematodes, repellent or high concentration of attractant
[22] = srh-44 RNAi-treated nematodes, repellent or high concentration of attractant
[23] = srh-45 RNAi-treated nematodes, repellent or high concentration of attractant
[24] = srh-46 RNAi-treated nematodes, repellent or high concentration of attractant
[25] = srh-48 RNAi-treated nematodes, repellent or high concentration of attractant
[26] = srh-49 RNAi-treated nematodes, repellent or high concentration of attractant
[27] = srh-50 RNAi-treated nematodes, repellent or high concentration of attractant
[28] = srh-51 RNAi-treated nematodes, repellent or high concentration of attractant
[29] = srh-52 RNAi-treated nematodes, repellent or high concentration of attractant
[30] = srh-55 RNAi-treated nematodes, repellent or high concentration of attractant
[31] = srh-59 RNAi-treated nematodes, repellent or high concentration of attractant
[32] = srh-60 RNAi-treated nematodes, repellent or high concentration of attractant
[33] = srh-61 RNAi-treated nematodes, repellent or high concentration of attractant
[34] = srh-67 RNAi-treated nematodes, repellent or high concentration of attractant
[35] = srh-68 RNAi-treated nematodes, repellent or high concentration of attractant
[36] = srh-69 RNAi-treated nematodes, repellent or high concentration of attractant
[37] = srh-70 RNAi-treated nematodes, repellent or high concentration of attractant
[38] = srh-71 RNAi-treated nematodes, repellent or high concentration of attractant
[39] = srh-72 RNAi-treated nematodes, repellent or high concentration of attractant
[40] = srh-74 RNAi-treated nematodes, repellent or high concentration of attractant
[41] = srh-75 RNAi-treated nematodes, repellent or high concentration of attractant
[42] = srh-77 RNAi-treated nematodes, repellent or high concentration of attractant
[43] = srh-79 RNAi-treated nematodes, repellent or high concentration of attractant
[44] = srh-80 RNAi-treated nematodes, repellent or high concentration of attractant
[45] = srh-82 RNAi-treated nematodes, repellent or high concentration of attractant
[46] = srh-83 RNAi-treated nematodes, repellent or high concentration of attractant
[47] = srh-97 RNAi-treated nematodes, repellent or high concentration of attractant
[48] = srh-99 RNAi-treated nematodes, repellent or high concentration of attractant
[49] = srh-100 RNAi-treated nematodes, repellent or high concentration of attractant
[50] = srh-104 RNAi-treated nematodes, repellent or high concentration of attractant
[51] = srh-105 RNAi-treated nematodes, repellent or high concentration of attractant
[52] = srh-109 RNAi-treated nematodes, repellent or high concentration of attractant
[53] = srh-111 RNAi-treated nematodes, repellent or high concentration of attractant

SMILES: O=Cc1ccccc1 [High Bz]
chemotaxis index [1]: −0.91 ± 0.007
chemotaxis index [2]: −0.75
chemotaxis index [3]: −1.00
chemotaxis index [4]: −0.93
chemotaxis index [5]: −0.95
chemotaxis index [6]: −0.78
chemotaxis index [7]: −0.41
chemotaxis index [8]: −0.88
chemotaxis index [9]: −0.88
chemotaxis index [10]: −1.00
chemotaxis index [11]: −0.80
chemotaxis index [12]: −0.88
chemotaxis index [13]: −1.00
chemotaxis index [14]: −0.73
chemotaxis index [15]: 0.96
chemotaxis index [16]: −0.75
chemotaxis index [17]: −0.95
chemotaxis index [18]: −1.00
chemotaxis index [19]: −0.84
chemotaxis index [20]: −0.87
chemotaxis index [21]: −0.89
chemotaxis index [22]: −0.48
chemotaxis index [23]: −0.96
chemotaxis index [24]: −0.82
chemotaxis index [25]: −0.80
chemotaxis index [26]: −0.76
chemotaxis index [27]: −1.00
chemotaxis index [28]: −0.96
chemotaxis index [29]: −1.00
chemotaxis index [30]: −0.98
chemotaxis index [31]: −0.91
chemotaxis index [32]: −0.98
chemotaxis index [33]: −0.92
chemotaxis index [34]: −0.97
chemotaxis index [35]: −0.87
chemotaxis index [36]: −0.87
chemotaxis index [37]: −0.94
chemotaxis index [38]: −0.91
chemotaxis index [39]: −0.98
chemotaxis index [40]: −0.95
chemotaxis index [41]: −0.94
chemotaxis index [42]: −0.89
chemotaxis index [43]: −0.80
chemotaxis index [44]: −0.87
chemotaxis index [45]: −0.88
chemotaxis index [46]: −0.45
chemotaxis index [47]: −0.86
chemotaxis index [48]: −0.74
chemotaxis index [49]: −0.94
chemotaxis index [50]: −0.91
chemotaxis index [51]: −0.96
chemotaxis index [52]: −0.87
chemotaxis index [53]: −0.79

chemotaxis index [1]: −0.84 ± 0.011
chemotaxis index [2]: −0.73
chemotaxis index [3]: −0.86
chemotaxis index [4]: −0.94
chemotaxis index [5]: −0.96
chemotaxis index [6]: −0.79
chemotaxis index [7]: −0.60
chemotaxis index [8]: −0.74
chemotaxis index [9]: −0.78
chemotaxis index [10]: −0.89
chemotaxis index [11]: −0.81
chemotaxis index [12]: −0.88
chemotaxis index [13]: −1.00
chemotaxis index [14]: 0.13
chemotaxis index [15]: −0.92
chemotaxis index [16]: −0.64
chemotaxis index [17]: −0.59
chemotaxis index [18]: −0.69
chemotaxis index [19]: −0.79
chemotaxis index [20]: −0.88
chemotaxis index [21]: −0.56
chemotaxis index [22]: 0.00
chemotaxis index [23]: −0.97
chemotaxis index [24]: −0.91
chemotaxis index [25]: −0.67
chemotaxis index [26]: −0.59
chemotaxis index [27]: −0.93
chemotaxis index [28]: −0.85
chemotaxis index [29]: −0.96
chemotaxis index [30]: −0.95
chemotaxis index [31]: −0.87
chemotaxis index [32]: −0.77
chemotaxis index [33]: −0.82
chemotaxis index [34]: −0.96
chemotaxis index [35]: −0.67
chemotaxis index [36]: −0.94
chemotaxis index [37]: −0.40
chemotaxis index [38]: −0.76
chemotaxis index [39]: −0.55
chemotaxis index [40]: −0.51
chemotaxis index [41]: −0.50
chemotaxis index [42]: −0.68
chemotaxis index [43]: −0.22
chemotaxis index [44]: −0.31
chemotaxis index [45]: −0.53
chemotaxis index [46]: 0.34
chemotaxis index [47]: −0.51
chemotaxis index [48]: −0.33
chemotaxis index [49]: −0.64
chemotaxis index [50]: −0.48
chemotaxis index [51]: −0.76
chemotaxis index [52]: −0.68
chemotaxis index [53]: −0.08
SMILES: CC(C)CCO [High Iaa]

SMILES: O=Cc1ccccc1 [benzaldehyde]
chemotaxis index (srh-10 RNAi-treated nematodes, low concentration of attractant): 0.12
chemotaxis index (srh-11 RNAi-treated nematodes, low concentration of attractant): −0.11
chemotaxis index (srh-15 RNAi-treated nematodes, low concentration of attractant): −0.13
chemotaxis index (srh-16 RNAi-treated nematodes, low concentration of attractant): 0.83
chemotaxis index (srh-18 RNAi-treated nematodes, low concentration of attractant): 0.05
chemotaxis index (srh-19 RNAi-treated nematodes, low concentration of attractant): 0.64
chemotaxis index (srh-22 RNAi-treated nematodes, low concentration of attractant): 0.28
chemotaxis index (srh-23 RNAi-treated nematodes, low concentration of attractant): 0.54
chemotaxis index (srh-24 RNAi-treated nematodes, low concentration of attractant): 0.69
chemotaxis index (srh-214 RNAi-treated nematodes, low concentration of attractant): 0.57
chemotaxis index (srh-216 RNAi-treated nematodes, low concentration of attractant): 0.47
chemotaxis index (srh-217 RNAi-treated nematodes, low concentration of attractant): 0.76
chemotaxis index (srh-220 RNAi-treated nematodes, low concentration of attractant): 0.61
chemotaxis index (srh-222 RNAi-treated nematodes, low concentration of attractant): 0.76
chemotaxis index (srh-223 RNAi-treated nematodes, low concentration of attractant): 0.49
chemotaxis index (srh-227 RNAi-treated nematodes, low concentration of attractant): 0.56
chemotaxis index (srh-229 RNAi-treated nematodes, low concentration of attractant): −0.21
chemotaxis index (srh-233 RNAi-treated nematodes, low concentration of attractant): −0.11
chemotaxis index (srh-235 RNAi-treated nematodes, low concentration of attractant): 0.32
chemotaxis index (srh-236 RNAi-treated nematodes, low concentration of attractant): 0.31
chemotaxis index (srh-239 RNAi-treated nematodes, low concentration of attractant): 0.34
chemotaxis index (srh-241 RNAi-treated nematodes, low concentration of attractant): 0.66
chemotaxis index (srh-243 RNAi-treated nematodes, low concentration of attractant): 0.30
chemotaxis index (srh-244 RNAi-treated nematodes, low concentration of attractant): 0.43
chemotaxis index (srh-247 RNAi-treated nematodes, low concentration of attractant): 0.40
chemotaxis index (srh-250 RNAi-treated nematodes, low concentration of attractant): 0.40
chemotaxis index (srh-251 RNAi-treated nematodes, low concentration of attractant): 0.70
chemotaxis index (srh-252 RNAi-treated nematodes, low concentration of attractant): 0.71
chemotaxis index (srh-258 RNAi-treated nematodes, low concentration of attractant): 0.40
chemotaxis index (srh-261 RNAi-treated nematodes, low concentration of attractant): 0.45
chemotaxis index (srh-264 RNAi-treated nematodes, low concentration of attractant): 0.38
chemotaxis index (srh-266 RNAi-treated nematodes, low concentration of attractant): 0.32
chemotaxis index (srh-274 RNAi-treated nematodes, low concentration of attractant): 0.45
chemotaxis index (srh-275 RNAi-treated nematodes, low concentration of attractant): 0.16
chemotaxis index (srh-276 RNAi-treated nematodes, low concentration of attractant): 0.56
chemotaxis index (srh-277 RNAi-treated nematodes, low concentration of attractant): 0.49
chemotaxis index (srh-279 RNAi-treated nematodes, low concentration of attractant): 0.34
chemotaxis index (srh-281 RNAi-treated nematodes, low concentration of attractant): 0.33
chemotaxis index (srh-282 RNAi-treated nematodes, low concentration of attractant): 0.24
chemotaxis index (srh-283 RNAi-treated nematodes, low concentration of attractant): 0.21
chemotaxis index (srh-284 RNAi-treated nematodes, low concentration of attractant): 0.29
chemotaxis index (srh-291 RNAi-treated nematodes, low concentration of attractant): 0.58
chemotaxis index (srh-292 RNAi-treated nematodes, low concentration of attractant): 0.48
chemotaxis index (srh-293 RNAi-treated nematodes, low concentration of attractant): 0.31
chemotaxis index (srh-297 RNAi-treated nematodes, low concentration of attractant): 0.63
chemotaxis index (srh-298 RNAi-treated nematodes, low concentration of attractant): 0.66
chemotaxis index (srh-308 RNAi-treated nematodes, low concentration of attractant): 0.14
